Reference: US6861429B2, “2,3-diaryl-pyrazolo[1,5-b]pyridazines derivatives, their preparation and their use as cyclooxygenase 2 (COX-2) inhibitors” (SmithKline Beecham Corporation, priority 1997, dated 2005)

Experiments:
human COX-2 = target: T1, human COX-2 (Homo sapiens, UniProt P35354); experiment: Inhibition of PGE2 release in COS cells stably transfected with human COX-2; type: cell-based; details: 30 μM arachidonic acid, PGE2 release by enzyme immunoassay
T1 construct: expressed in transfected cells
T1 sequence (P35354 18-604): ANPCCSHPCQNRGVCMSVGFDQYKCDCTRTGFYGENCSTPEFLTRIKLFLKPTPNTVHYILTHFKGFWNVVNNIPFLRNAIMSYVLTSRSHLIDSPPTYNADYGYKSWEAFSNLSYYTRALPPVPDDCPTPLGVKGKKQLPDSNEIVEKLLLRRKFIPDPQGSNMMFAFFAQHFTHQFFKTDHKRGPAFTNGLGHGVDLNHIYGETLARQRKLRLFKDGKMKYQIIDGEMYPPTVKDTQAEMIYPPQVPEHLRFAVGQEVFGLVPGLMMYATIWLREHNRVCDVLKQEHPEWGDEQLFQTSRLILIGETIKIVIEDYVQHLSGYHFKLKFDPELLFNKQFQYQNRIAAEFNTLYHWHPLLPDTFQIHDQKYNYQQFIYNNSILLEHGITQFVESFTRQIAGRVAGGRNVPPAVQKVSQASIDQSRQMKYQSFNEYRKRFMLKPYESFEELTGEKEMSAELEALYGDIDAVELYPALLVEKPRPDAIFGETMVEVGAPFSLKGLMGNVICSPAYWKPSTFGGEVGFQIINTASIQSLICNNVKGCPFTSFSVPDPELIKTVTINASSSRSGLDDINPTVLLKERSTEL
Protocol: (§1) Inhibitory activity against human COX-1and COX-2was assessed in COS cells which had been stably transfected with cDNA for human COX-1and human COX-2. 24Hours prior to experiment, COS cells were transferred from the 175 cm^2flasks in which they were grown, onto 24-well cell culture plates using the following procedure. The incubation medium (Dulbecco's modified eagles medium (DMEM) supplemented with heat-inactivated foetal calf serum (10% v/v), penicillin (100 IU/ml), streptomycin (100 μg/ml) and geneticin (600 μg/ml)) was removed from a flask of confluent cells (1flask at confluency contains approximately 1×10^7 cells). 10 ml of phosphate buffered saline (PBS) was added to the flask to wash the cells. Having discarded the PBS, cells were then rinsed in 10 ml trypsin for 20 seconds, after which the trypsin was removed and the flask placed in an incubator (37°) for 1-2 minutes until cells became detached from the flask. The flask was then removed from the incubator and cells resuspended in 10 ml of fresh incubation medium. The contents of the flask was transferred to a 250 ml sterile container and the volume of incubation medium subsequently made up to 100 ml. […] If more than 1 flask of cells were required, the cells from the individual flasks were combined before being dispensed into the 24-well plates.
(§2) Following the overnight incubation, the incubation medium was completely removed from the 24-well cell culture plates and replaced with 250 μl fresh DMEM (37° C.). The test compounds were made up to 250× the required test concentration in DMSO and were added to the wells in a volume of 1 μl. […] Plates were then incubated for a further 15 minutes, after which the incubation medium was removed from each well of the plates and stored at −20° C., prior to determination of prostaglandin E2(PGE2) levels using enzyme immunoassay. […] The selectivity ratio of inhibition of COX-1 versus COX-2 was calculated by comparing respective IC50 values.

human COX-1 = target: T2, human COX-1 (Homo sapiens, UniProt P23219); experiment: Inhibition of PGE2 release in COS cells stably transfected with human COX-1; type: cell-based; details: 30 μM arachidonic acid, PGE2 release by enzyme immunoassay
T2 construct: expressed in transfected cells
T2 sequence (P23219 24-599): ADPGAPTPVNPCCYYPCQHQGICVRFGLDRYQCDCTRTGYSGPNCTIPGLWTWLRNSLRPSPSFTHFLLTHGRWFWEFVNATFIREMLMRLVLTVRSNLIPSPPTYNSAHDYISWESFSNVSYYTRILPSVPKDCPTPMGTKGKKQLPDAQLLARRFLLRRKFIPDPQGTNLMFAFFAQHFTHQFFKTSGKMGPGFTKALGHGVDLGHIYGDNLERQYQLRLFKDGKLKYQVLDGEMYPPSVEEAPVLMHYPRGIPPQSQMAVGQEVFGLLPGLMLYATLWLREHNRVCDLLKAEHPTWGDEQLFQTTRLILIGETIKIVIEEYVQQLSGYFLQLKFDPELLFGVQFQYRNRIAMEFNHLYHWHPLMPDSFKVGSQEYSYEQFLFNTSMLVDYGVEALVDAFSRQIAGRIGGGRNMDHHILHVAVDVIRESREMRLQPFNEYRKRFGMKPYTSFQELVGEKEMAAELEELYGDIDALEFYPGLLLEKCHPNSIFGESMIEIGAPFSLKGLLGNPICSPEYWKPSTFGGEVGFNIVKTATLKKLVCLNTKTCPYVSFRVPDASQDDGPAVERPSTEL
Protocol: as §1, §2

How did the IC50 (human COX-2) turn out when `CS(=O)(=O)c1ccc(-c2c(-c3ccc(F)cc3)nn3nc(OC(F)F)ccc23)cc1` [1(v), 6-Difluoromethoxy-2-(4-fluoro-phenyl)-3-(4-methanesulfonyl-phenyl)-pyrazolo[1,5-b]pyridazine] was run?
The IC50 was 35 nM.

And the IC50 (human COX-1)?
The IC50 was > 100000 nM.

`CCOc1ccc(-c2nn3ncccc3c2-c2ccc(S(C)(=O)=O)cc2)cc1` [3(ii), 2-(4-Ethoxy-phenyl)-3-(4-methanesulfonyl-phenyl)-pyrazolo[1,5-b]pyridazine] was tested. Which IC50 (human COX-1) did it give?
The IC50 was > 100000 nM.

With `CS(=O)(=O)c1ccc(-c2c(-c3cccc(F)c3)nn3nc(OC(F)F)ccc23)cc1` [7(viii), 6-Difluoromethoxy-2-(3-fluoro-phenyl)-3-(4-methanesulfonyl-phenyl)-pyrazolo[1,5-b]pyridazine] as the compound, how does the IC50 (human COX-2) read?
The IC50 was 16 nM.

What about the IC50 (human COX-1) of the same compound?
Its IC50 is > 55200 nM.

Which results are given for `CS(=O)(=O)c1ccc(-c2c(-c3ccc(OC(F)F)cc3)nn3ncccc23)cc1` [Example 5, 2-(4-Difluoromethoxy-phenyl)-3-(4-methanesulfonyl-phenyl)-pyrazolo[1,5-b]pyridazine]?
IC50 (human COX-2): 21 nM; IC50 (human COX-1): > 100000 nM

Which IC50 (human COX-2) does the source give for `COc1ccc(-c2nn3ncccc3c2-c2ccc(S(C)(=O)=O)cc2)cc1` [2(ii), 3-(4-Methanesulfonyl-phenyl)-2-(4-methoxy-phenyl)-pyrazolo[1,5-b]pyridazine] here?
The IC50 was < 10 nM.
